Read-outs that look alike come from different tables or passages of the source.
Experiments:
L. infantum = experiment: Intramacrophage L. infantum assay; type: cell-based; conditions: Leishmania infantum, geometric mean of at least two independent tests
Protocol: L. infantum (MHOM/MA/67/ITMAP263) and L. donovani (MHOM/ET/67/L82) were maintained in the golden (Syrian) hamster (Mesocricetus auratus). Ex vivo amastigotes were collected from the spleen of an infected donor hamster using two centrifugation purification steps: 230g for 10 min, keeping the supernatant layer, and 4100g for 30 min, keeping the pellet. The spleen parasite burden was assessed using the Stauber technique.[25] For in vitro assays, the inoculum was prepared in RPMI-1640 medium, supplemented with 200 mM L-glutamine, 16.5 mM NaHCO3, and 5% inactivated fetal calf serum. For the in vivo model, an infection inoculum containing 2 × 10^7 amastigotes/100 μL was prepared in phosphate-buffered saline (PBS).
The assay was performed in sterile 96-well microtiter plates, each well containing 10 μL of the compound dilution and 190 μL of the PMM/amastigote inoculum (3 × 10^4 cells/4.5 × 10^5 parasites per well). Parasite multiplication was compared to untreated infected controls (100% growth) and uninfected controls (0% growth). After five-day incubation, total parasite burdens were microscopically assessed after staining the cells with a 10% Giemsa solution. The results were expressed as a percentage reduction in parasite burden compared to untreated control wells. EC50 values were determined using an extended dose range (2-fold compound dilutions, 8-point concentration curve). Miltefosine was used as the reference drug.[26] For selected compounds, this assay format was also run using the L. donovani inoculum.

PMM cytotoxicity assay = type: cell-based; conditions: mouse, primary peritoneal mouse macrophages (PMM), geometric mean of at least two independent tests
Protocol: (§1) Primary peritoneal mouse macrophages (PMM) were collected two days after peritoneal stimulation with a 2% potato starch suspension. MRC5SV2 cells (diploid human embryonic lung fibroblasts) were cultured in minimal essential medium (MEM) containing Earle’s salts, supplemented with L-glutamine, NaHCO3, and 5% inactivated fetal calf serum. All cultures and assays were conducted at 37 °C under an atmosphere of 5% CO2.
(§2) Assays were performed in sterile 96-well microtiter plates, each well containing 10 μL of the compound dilution and 190 μL of MRC5SV2 or PMM inoculum (3 × 10^4 cells/mL). Cell growth was compared to untreated controls (100% growth) and assay-media controls (0% growth). After three-day incubation, cell viability was assessed fluorometrically by adding resazurin (50 μL/well of a stock solution in phosphate buffer (50 μg/mL)), incubating for 4 h and measuring fluorescence (λex 550 nm, λem 590 nm). The results were expressed as a percentage reduction in cell growth compared to untreated control wells. […] Tamoxifen was included as the reference drug.

MRC5 cytotoxicity assay = type: cell-based; conditions: human, MRC5SV2 cells (human embryonic lung fibroblasts), geometric mean of at least two independent tests
Protocol: as §1, §2

[1] = Liver microsome stability, human; type: in vitro ADME; conditions: human liver microsomes
Protocol: (§3) Tests were performed by WuXi AppTec, China. Test compounds (at 1 μM) or positive controls (testosterone, propafenone, and diclofenac) were incubated at 37 °C with liver microsomes from Balb/c mouse, golden (Syrian) hamster, Sprague-Dawley rat, Beagle dog, or human in the presence of a NADPH regenerating system and phosphate buffer (100 mM, pH 7.4) at 0.4 or 0.8 mg/mL microsomal protein. The samples were removed at time intervals from 0 to 60, 90, or 120 min and immediately mixed with cold methanol supplemented or not with acid (3% formic acid) and centrifuged prior to analysis by LC-MS/MS using tolbutamide or propranolol as internal standards.

[2] = Liver microsome stability, hamster; type: in vitro ADME; conditions: golden (Syrian), hamster liver microsomes
Protocol: as §3

[3] = Table 4, read-out: intramacrophage L. infantum EC50
[4] = pH 7.4, Table 4, read-out: HLM Clint
[5] = pH 7.4, Table 4, read-out: HamLM Clint
[6] = Table 5, read-out: intramacrophage L. infantum amastigote EC50
[7] = pH 7.4, Table 5, read-out: HLM Clint
[8] = pH 7.4, Table 5, read-out: HamLM Clint

Row | EC50 (L. infantum; [3]) | microsomal CLint at 1 μM [1, 4] | microsomal CLint at 2 h, 1 µM [2, 5] | SMILES | CC50 at 3 days (PMM cytotoxicity assay; Table 4) | CC50 at 3 days (MRC5 cytotoxicity assay; Table 4) | CC50 at 72 h (MRC5 cytotoxicity assay; Table 4) | other results
1 | 2100 nM | < 11.9 µL/min/mg | 1040 µL/min/mg | O=C(Nc1ccc2c(c1)B(O)OC2)c1cn(C(F)(F)F)nc1C(F)(F)F [Compound 4, N-(1-Hydroxy-1,3-dihydrobenzo[c][1,2]oxaborol-6-yl)-1,3-bis(trifluoromethyl)-1H-pyrazole-4-carboxamide] | > 64 µM | > 64 µM | – | –
2 | 1300 nM | < 11.9 µL/min/mg | 114 µL/min/mg | O=C(Nc1ccc2c(c1)B(O)OC2)c1cn(CCC(F)(F)F)nc1C(F)(F)F [Compound 6, N-(1-Hydroxy-1,3-dihydrobenzo[c][1,2]oxaborol-6-yl)-3-(trifluoromethyl)-1-(3,3,3-trifluoropropyl)-1H-pyrazole-4-carboxamide] | – | – | 49 µM | CC50 at 72 h (PMM cytotoxicity assay; Table 4): 38 µM
3 | 5700 nM | – | – | Cc1nn(CCC(F)(F)F)cc1C(=O)Nc1ccc2c(c1)B(O)OC2 [Compound 7, N-(1-Hydroxy-1,3-dihydrobenzo[c][1,2]oxaborol-6-yl)-3-methyl-1-(3,3,3-trifluoropropyl)-1H-pyrazole-4-carboxamide] | > 64 µM | > 64 µM | – | –
4 | 16000 nM | < 11.9 µL/min/mg | 57 µL/min/mg | Cc1nn(C2CCC2)cc1C(=O)Nc1ccc2c(c1)B(O)OC2 [Compound 8, Cyclobutyl-N-(1-hydroxy-1,3-dihydrobenzo[c][1,2]oxaborol-6-yl)-3-methyl-1H-pyrazole-4-carboxamide] | > 64 µM | > 64 µM | – | –
5 | 590 nM | < 11.9 µL/min/mg | 337 µL/min/mg | O=C(Nc1ccc2c(c1)B(O)OC2)c1cn(C2CCC2)nc1C(F)(F)F [Compound 9, 1-Cyclobutyl-N-(1-hydroxy-1,3-dihydrobenzo[c][1,2]oxaborol-6-yl)-3-(trifluoromethyl)-1H-pyrazole-4-carboxamide] | – | – | 26 µM | CC50 at 72 h (PMM cytotoxicity assay; Table 4): 32 µM
6 | 3000 nM | < 11.9 µL/min/mg | 109 µL/min/mg | O=C(Nc1ccc2c(c1)B(O)OC2)c1cn(C2CCOCC2)nc1C(F)(F)F [Compound 10, N-(1-Hydroxy-1,3-dihydrobenzo[c][1,2]oxaborol-6-yl)-1-(tetrahydro-2H-pyran-4-yl)-3-(trifluoromethyl)-1H-pyrazole-4-carboxamide] | > 64 µM | > 64 µM | – | –
7 | 5700 nM | < 11.9 µL/min/mg | – | Cc1nn(-c2ccccn2)cc1C(=O)Nc1ccc2c(c1)B(O)OC2 [Compound 11, N-(1-Hydroxy-1,3-dihydro-2,1-benzoxaborol-6-yl)-3-methyl-1-(pyridine-2-yl)-1H-pyrazole-4-carboxamide] | > 64 µM | > 64 µM | – | –
8 | 2200 nM | – | – | COc1ccccc1-n1cc(C(=O)Nc2ccc3c(c2)B(O)OC3)c(C)n1 [Compound 14, N-(1-Hydroxy-1,3-dihydro-2,1-benzoxaborol-6-yl)-1-(2-methoxyphenyl)-3-methyl-1H-pyrazole-4-carboxamide] | > 64 µM | – | 15.7 µM | –
9 | 14000 nM | < 11.9 µL/min/mg | 48 µL/min/mg | Cc1c(C(=O)Nc2ccc3c(c2)B(O)OC3)cnn1CCC(F)(F)F [Compound 15, N-(1-Hydroxy-1,3-dihydrobenzo[c][1,2]oxaborol-6-yl)-5-methyl-1-(3,3,3-trifluoropropyl)-1H-pyrazole-4-carboxamide] | > 64 µM | > 64 µM | – | –
10 | 1400 nM | < 11.9 µL/min/mg | 40 µL/min/mg | COc1cccc(-n2ncc(C(=O)Nc3ccc4c(c3)B(O)OC4)c2C)n1 [Compound 17, N-(1-Hydroxy-1,3-dihydrobenzo[c][1,2]oxaborol-6-yl)-1-(6-methoxypyridin-2-yl)-5-methyl-1H-pyrazole-4-carboxamide] | > 64 µM | – | 40 µM | –
11 | 1600 nM | < 11.9 µL/min/mg | 44 µL/min/mg | Cc1cccc(-n2ncc(C(=O)Nc3ccc4c(c3)B(O)OC4)c2C)n1 [Compound 18, N-(1-Hydroxy-1,3-dihydrobenzo[c][1,2]oxaborol-6-yl)-5-methyl-1-(6-methylpyridin-2-yl)-1H-pyrazole-4-carboxamide] | > 64 µM | – | 41 µM | –
12 | 500 nM | < 11.9 µL/min/mg | 253 µL/min/mg | O=C(Nc1ccc2c(c1)B(O)OC2)c1cc(-c2ccccn2)n[nH]1 [Compound 19, N-(1-Hydroxy-1,3-dihydrobenzo[c][1,2]oxaborol-6-yl)-3-(pyridin-2-yl)-1H-pyrazole-5-carboxamide] | – | – | 4 µM | CC50 at 72 h (PMM cytotoxicity assay; Table 4): 32 µM
13 | 34000 nM | – | 121 µL/min/mg | Cn1nc(-c2ccccn2)cc1C(=O)Nc1ccc2c(c1)B(O)OC2 [Compound 20, N-(1-Hydroxy-1,3-dihydrobenzo[c][1,2]oxaborol-6-yl)-1-methyl-3-(pyridin-2-yl)-1H-pyrazole-5-carboxamide] | > 64 µM | > 64 µM | – | microsomal CLint at 2 h, 1 µM [1, 4]: 18 µL/min/mg
14 | 1800 nM | – | 106 µL/min/mg | Cn1nc(C(=O)Nc2ccc3c(c2)B(O)OC3)cc1-c1ccccn1 [Compound 21, N-(1-Hydroxy-1,3-dihydrobenzo[c][1,2]oxaborol-6-yl)-1-methyl-5-(pyridin-2-yl)-1H-pyrazole-3-carboxamide] | > 64 µM | – | 54 µM | microsomal CLint at 2 h, 1 µM [1, 4]: 14 µL/min/mg
15 | – | – | – | O=C(Nc1ccc2c(c1)B(O)OC2)c1cn(-c2ccccn2)nn1 [Compound 22, N-(1-Hydroxy-1,3-dihydrobenzo[c][1,2]oxaborol-6-yl)-1-(pyridin-2-yl)-1H-1,2,3-triazole-4-carboxamide] | – | – | – | EC50 (L. infantum; [6]): 1700 nM; CC50 at 3 days (PMM cytotoxicity assay; Table 5): > 64 µM; CC50 at 72 h (MRC5 cytotoxicity assay; Table 5): 44.8 µM; microsomal CLint at 1 μM [1, 7]: < 11.9 µL/min/mg; microsomal CLint at 2 h, 1 µM [2, 8]: 18 µL/min/mg
16 | – | – | – | Cc1c(C(=O)Nc2ccc3c(c2)B(O)OC3)nnn1-c1ccccc1 [Compound 24, N-(1-Hydroxy-1,3-dihydrobenzo[c][1,2]oxaborol-6-yl)-5-methyl-1-phenyl-1H-1,2,3-triazole-4-carboxamide] | – | – | – | EC50 (L. infantum; [6]): 37000 nM; CC50 at 3 days (PMM cytotoxicity assay; Table 5): > 64 µM; CC50 at 3 days (MRC5 cytotoxicity assay; Table 5): > 64 µM; microsomal CLint at 1 μM [1, 7]: < 11.9 µL/min/mg
17 | – | – | – | COc1cccc(-n2nnc(C(=O)Nc3ccc4c(c3)B(O)OC4)c2C)n1 [Compound 25, N-(1-Hydroxy-1,3-dihydrobenzo[c][1,2]oxaborol-6-yl)-1-(6-methoxypyridin-2-yl)-5-methyl-1H-1,2,3-triazole-4-carboxamide] | – | – | – | EC50 (L. infantum; [6]): 800 nM; CC50 at 72 h (PMM cytotoxicity assay; Table 5): 32 µM; CC50 at 3 days (MRC5 cytotoxicity assay; Table 5): > 64 µM; microsomal CLint at 2 h, 1 µM [1, 7]: 23 µL/min/mg; microsomal CLint at 2 h, 1 µM [2, 8]: 40 µL/min/mg
18 | – | – | – | Cc1cccc(-n2nnc(C(=O)Nc3ccc4c(c3)B(O)OC4)c2C)n1 [Compound 26, N-(1-Hydroxy-1,3-dihydrobenzo[c][1,2]oxaborol-6-yl)-5-methyl-1-(6-methylpyridin-2-yl)-1H-1,2,3-triazole-4-carboxamide] | – | – | – | EC50 (L. infantum; [6]): 6400 nM; CC50 at 3 days (PMM cytotoxicity assay; Table 5): > 64 µM; CC50 at 3 days (MRC5 cytotoxicity assay; Table 5): > 64 µM
19 | – | – | – | Cc1c(C(=O)Nc2ccc3c(c2)B(O)OC3)nnn1-c1cccnc1 [Compound 27, N-(1-Hydroxy-1,3-dihydrobenzo[c][1,2]oxaborol-6-yl)-5-methyl-1-(pyridin-3-yl)-1H-1,2,3-triazole-4-carboxamide] | – | – | – | EC50 (L. infantum; [6]): 38000 nM; CC50 at 3 days (PMM cytotoxicity assay; Table 5): > 64 µM; CC50 at 3 days (MRC5 cytotoxicity assay; Table 5): > 64 µM

From publication PMC8591608, “DNDI-6148: A Novel Benzoxaborole Preclinical Candidate for the Treatment of Visceral Leishmaniasis” (Journal of Medicinal Chemistry, 2021)
